Assay results: patent US7829568B2, “Substituted 5,6,7,8-tetrahydroimidazo[1,2-a]pyridin-2-ylamine compounds and their use for producing drugs” (Gruenenthal GmbH, priority 2005, dated 2010)

Test system: batrachotoxin (BTX) binding site of the sodium channel
Assay: Affinity to the batrachotoxin (BTX) binding site of the sodium channel
Parameters: species or system rat
Conditions: [3H]-batrachotoxinin A20 α-benzoate 10 nM; synaptosomes from rat cerebral cortex; test concentration not given

| SMILES | BTX inhibition (rat) (% inhibition) |
| --- | --- |
| CCCCN(C(=O)c1cccc(Cl)c1)c1nc2n(c1C(=O)NCCc1cc(OC)ccc1OC)CCCC2 [Example 2, 2-[butyl-(3-chloro-benzoyl)-amino]-5,6,7,8-tetrahydro-imidazo[1,2-a]pyridine-3-carboxylic acid [2-(2,5-dimethoxy-phenyl)-ethyl]-amide] | 59% |
| CCc1ccccc1N1CCN(C(=O)c2c(N(C)C(=O)c3ccccc3)nc3n2CCCC3)CC1 [Example 3, N-{3-[4-(2-ethyl-phenyl)-piperazine-1-carbonyl]-5,6,7,8-tetrahydro-imidazo[1,2-a]pyridin-2-yl}-N-methyl-benzamide] | 34% |
| CCCCN(C(=O)c1cccc(Cl)c1)c1nc2n(c1C(=O)NCCCn1ccnc1)CCCC2 [Example 9, 2-[butyl-(3-chloro-benzoyl)-amino]-5,6,7,8-tetrahydro-imidazo[1,2-a]pyridine-3-carboxylic acid (3-imidazol-1-yl-propyl)-amide] | 36% |
| CN(C(=O)c1cccc(Cl)c1)c1nc2n(c1C(=O)N1CCN(c3cccc(C(F)(F)F)c3)CC1)CCCC2 [Example 14, 3-chloro-N-methyl-N-{3-[4-(3-trifluoromethyl-phenyl)-piperazine-1-carbonyl]-5,6,7,8-tetrahydro-imidazo[1,2-a]pyridin-2-yl}-benzamide] | 41% |
| CN(C(=O)c1cccc2ccccc12)c1nc2n(c1C(=O)NCc1cc(C(F)(F)F)cc(C(F)(F)F)c1)CCCC2 [Example 15, 2-[Methyl-(naphthalene-1-carbonyl)-amino]-5,6,7,8-tetrahydro-imidazo[1,2-a]pyridine-3-carboxylic acid 3,5-bis-trifluoromethyl-benzylamide] | 68% |
| CCCCN(C(=O)c1ccc(F)c(F)c1)c1nc2n(c1C(=O)NC1CCC(C)CC1)CCCC2 (centres unmarked) [Example 16, 2-[butyl-(3,4-difluoro-benzoyl)-amino]-5,6,7,8-tetrahydro-imidazo[1,2-a]pyridine-3-carboxylic acid (4-methyl-cyclohexyl)-amide] | 47% |
| CCCCN(C(=O)c1cccc(Cl)c1)c1nc2n(c1C(=O)N1CCN(CCCc3ccccc3)CC1)CCCC2 [Example 26, N-butyl-3-chloro-N-{3-[4-(3-phenyl-propyl)-piperazine-1-carbonyl]-5,6,7,8-tetrahydro-imidazo[1,2-a]pyridin-2-yl}-benzamide] | 93% |
| CC1C(NC(=O)c2c(N(C)C(=O)c3cccc(Cl)c3)nc3n2CCCC3)CC2CC1C2(C)C (centres unmarked) [Example 27, 2-[(3-chloro-benzoyl)-methyl-amino]-5,6,7,8-tetrahydro-imidazo[1,2-a]pyridine-3-carboxylic acid (2,6,6-trimethyl-bicyclo[3.1.1]hept-3-yl)-amide] | 35% |
| CCCCN(C(=O)c1ccc(F)c(F)c1)c1nc2n(c1C(=O)NCCCc1ccccc1)CCCC2 [Example 28, 2-[butyl-(3,4-difluoro-benzoyl)-amino]-5,6,7,8-tetrahydro-imidazo[1,2-a]pyridine-3-carboxylic acid (3-phenyl-propyl)-amide] | 42% |
| CN(C(=O)c1cccc2ccccc12)c1nc2n(c1C(=O)NC1CCN(Cc3ccc(C(F)(F)F)cc3)C1)CCCC2 (centres unmarked) [Example 30, 2-[methyl-(naphthalene-1-carbonyl)-amino]-5,6,7,8-tetrahydro-imidazo[1,2-a]pyridine-3-carboxylic acid [1-(4-trifluoromethyl-benzyl)-pyrrolidin-3-yl]-amide] | 85% |
| CCc1ccc(NC(=O)c2c(N(C)C(=O)c3cccc(Cl)c3)nc3n2CCCC3)cc1 [Example 31, 2-[(3-chloro-benzoyl)-methyl-amino]-5,6,7,8-tetrahydro-imidazo[1,2-a]pyridine-3-carboxylic acid (4-ethyl-phenyl)-amide] | 70% |
| CN(C(=O)c1cccc2ccccc12)c1nc2n(c1C(=O)NCc1cccc(Cl)c1Cl)CCCC2 [Example 33, 2-[methyl-(naphthalene-1-carbonyl)-amino]-5,6,7,8-tetrahydro-imidazo[1,2-a]pyridine-3-carboxylic acid 2,3-dichlor-benzylamide] | 49% |
| CCCCN(C(=O)c1ccc(F)c(F)c1)c1nc2n(c1C(=O)N(C)C1CCN(Cc3cc4ccccc4o3)C1)CCCC2 (centres unmarked) [Example 34, 2-[butyl-(3,4-difluoro-benzoyl)-amino]-5,6,7,8-tetrahydro-imidazo[1,2-a]pyridine-3-carboxylic acid (1-benzofuran-2-ylmethyl-pyrrolidin-3-yl)-methyl-amide] | 83% |
| CCCCN(C(=O)c1cccc(Cl)c1)c1nc2n(c1C(=O)NC(C)c1cccc3ccccc13)CCCC2 (centres unmarked) [Example 39, 2-[butyl-(3-chloro-benzoyl)-amino]-5,6,7,8-tetrahydro-imidazo[1,2-a]pyridine-3-carboxylic acid (1-naphthalen-1-yl-ethyl)-amide] | 47% |
| CCCCN(C(=O)c1cccc(Cl)c1)c1nc2n(c1C(=O)NCc1ccccc1OCC)CCCC2 [Example 43, 2-[butyl-(3-chloro-benzoyl)-amino]-5,6,7,8-tetrahydro-imidazo[1,2-a]pyridine-3-carboxylic acid 2-ethoxy-benzylamide] | 40% |
| CN(C(=O)c1cccc(Cl)c1)c1nc2n(c1C(=O)N1CCN(Cc3ccc4c(c3)OCO4)CC1)CCCC2 [Example 45, N-[3-(4-benzo[1,3]dioxol-5-ylmethyl-piperazine-1-carbonyl)-5,6,7,8-tetrahydro-imidazo[1,2-a]pyridin-2-yl]-3-chloro-N-methyl-benzamide] | 41% |
| CN(C(=O)c1cccc2ccccc12)c1nc2n(c1C(=O)NCC(c1ccccc1)c1ccccc1)CCCC2 [Example 46, 2-[methyl-(naphthalene-1-carbonyl)-amino]-5,6,7,8-tetrahydro-imidazo[1,2-a]pyridine-3-carboxylic acid (2,2-diphenyl-ethyl)-amide] | 67% |
| CCCCN(C(=O)c1cccc(Cl)c1)c1nc2n(c1C(=O)NCc1ccc(F)cc1F)CCCC2 [Example 47, 2-[butyl-(3-chloro-benzoyl)-amino]-5,6,7,8-tetrahydro-imidazo[1,2-a]pyridine-3-carboxylic acid 2,4-difluoro-benzylamide] | 44% |
| CCCCN(C(=O)c1cccc(Cl)c1)c1nc2n(c1C(=O)N1CCN(c3ccccc3F)CC1)CCCC2 [Example 48, N-butyl-3-chloro-N-{3-[4-(2-fluoro-phenyl)-piperazine-1-carbonyl]-5,6,7,8-tetrahydro-imidazo[1,2-a]pyridin-2-yl}-benzamide] | 89% |
| Cc1ccc(CCNC(=O)c2c(N(C)C(=O)c3cccc4ccccc34)nc3n2CCCC3)cc1 [Example 49, 2-[methyl-(naphthalene-1-carbonyl)-amino]-5,6,7,8-tetrahydro-imidazo[1,2-a]pyridine-3-carboxylic acid (2-p-tolyl-ethyl)-amide] | 37% |
| CCCCN(C(=O)c1cccc(Cl)c1)c1nc2n(c1C(=O)NCc1ccccc1C(F)(F)F)CCCC2 [Example 51, 2-[butyl-(3-chloro-benzoyl)-amino]-5,6,7,8-tetrahydro-imidazo[1,2-a]pyridine-3-carboxylic acid 2-trifluoromethyl-benzylamide] | 35% |
| CCCCN(C(=O)c1cccc(Cl)c1)c1nc2n(c1C(=O)NC1CCc3ccccc31)CCCC2 (centres unmarked) [Example 52, 2-[butyl-(3-chloro-benzoyl)-amino]-5,6,7,8-tetrahydro-imidazo[1,2-a]pyridine-3-carboxylic acid indan-1-ylamide] | 45% |
| CN(C(=O)c1cccc(Cl)c1)c1nc2n(c1C(=O)N1CCN(Cc3ccc4ccccc4n3)CC1)CCCC2 [Example 53, 3-chloro-N-methyl-N-[3-(4-quinolin-2-ylmethyl-piperazine-1-carbonyl)-5,6,7,8-tetrahydro-imidazo[1,2-a]pyridin-2-yl]-benzamide] | 64% |
| CCCCN(C(=O)c1ccc(F)c(F)c1)c1nc2n(c1C(=O)N1CCN(C(c3ccccc3)c3ccccc3)CC1)CCCC2 [Example 56, N-[3-(4-benzhydryl-piperazine-1-carbonyl)-5,6,7,8-tetrahydro-imidazo[1,2-a]pyridin-2-yl]-N-butyl-3,4-difluoro-benzamide] | 65% |
| CC(C)CC(NC(=O)c1c(N(C)C(=O)c2cccc3ccccc23)nc2n1CCCC2)C(=O)OCc1ccccc1 (centres unmarked) [Example 57, 4-methyl-2-({2-[methyl-(naphthalene-1-carbonyl)-amino]-5,6,7,8-tetrahydro-imidazo[1,2-a]pyridine-3-carbonyl}-amino)-pentanoic acid benzyl ester] | 31% |
| CCCCN(C(=O)c1cccc(Cl)c1)c1nc2n(c1C(=O)NCCN1CCCC1)CCCC2 [Example 58, 2-[butyl-(3-chloro-benzoyl)-amino]-5,6,7,8-tetrahydro-imidazo[1,2-a]pyridine-3-carboxylic acid (2-pyrrolidin-1-yl-ethyl)-amide] | 50% |
| CN(C(=O)c1cccc(Cl)c1)c1nc2n(c1C(=O)NC1CCN(Cc3ccccc3OCc3ccccc3)C1)CCCC2 (centres unmarked) [Example 59, 2-[(3-chloro-benzoyl)-methyl-amino]-5,6,7,8-tetrahydro-imidazo[1,2-a]pyridine-3-carboxylic acid [1-(2-benzyloxy-benzyl)-pyrrolidin-3-yl]-amide] | 95% |
| CN(C(=O)c1cccc(Cl)c1)c1nc2n(c1C(=O)N1CC=C(c3ccc(F)cc3)CC1)CCCC2 [Example 61, 3-chloro-N-{3-[4-(4-fluorophenyl)-3,6-dihydro-2H-pyridine-1-carbonyl]-5,6,7,8-tetrahydro-imidazo[1,2-a]pyridin-2-yl}-N-methyl-benzamide] | 38% |
| CN(C(=O)c1cccc(Cl)c1)c1nc2n(c1C(=O)NC1CCCCC1OCc1ccccc1)CCCC2 (centres unmarked) [Example 67, 2-[(3-chloro-benzoyl)-methyl-amino]-5,6,7,8-tetrahydro-imidazo[1,2-a]pyridine-3-carboxylic acid (2-benzyloxy-cyclohexyl)-amide] | 51% |
